Experiments:
Bach1 mRNA [1] = assay: Initial screen: Bach1 mRNA knock-down in human A549 cells (96-well transfection, quantitative RT-PCR); assay type: cell-based; conditions: for % KD: Bach1 mRNA, 10 nM siNA, human A549 cells, n = 2, mean ± S.D., normalized to GAPDH and non-targeting control, 24 hrs post-transfection; for % KD Bach1: Table 5, Bach1 mRNA screening data, A549 cells
Bach1 mRNA [2] = assay: Dose-response curve of Bach1 mRNA knock-down in human A549 cells; assay type: cell-based; conditions: three experiments, mean ± standard deviation; for IC50: Table 4, Bach1 mRNA knock-down; for Maximum % KD in DRC: Table 4, Bach1 mRNA, 12 concentrations 0.083 fM to 30 nM
Description: All calculations of IC50s were performed using SigmaPlot 10.0 software. The data were analyzed using the sigmoidal dose-response (variable slope) equation for simple ligand binding. In all of the calculations of the % knock-down, the calculation was made relative to the normalized level of expression of the gene of interest in the samples treated with the non-targeting control (Ctrl siNA) unless otherwise indicated. Summary data, as to potency and efficacy for Bach1 mRNA knock-down in human cells for certain siNA molecules, is presented in Table 4. Cells for the experiments were treated with 12 concentrations of siNA ranging from 0.083 fM to 30 nM. All of the data is presented as % knockdown of Bach1 normalized against the expression of GAPDH mRNA expression level. Then the data was determined as a % knockdown relative to the non-targeting control siNA.

| Substance | % KD (Bach1 mRNA [1]) [%] | % KD Bach1 (Bach1 mRNA [1]) [%] | IC50 (Bach1 mRNA [2]) [nM] | Maximum % KD in DRC (Bach1 mRNA [2]) [%] |
| --- | --- | --- | --- | --- |
| 29947-DC (sense GGAAUCCUGCUUUCAGUUUTT; antisense AAACUGAAAGCAGGAUUCCUU; inverted abasic caps (B), 2'-modified nucleotides, further chemistry not given here) | 83.4 ± 6.9 | 83.4 ± 6.9 | 0.027 ± 0.005 | 86 ± 0.5 |
| 29956-DC (sense GUCUGAGUGUCCGUGGUUATT; antisense UAACCACGGACACUCAGACUU; inverted abasic caps (B), 2'-modified nucleotides, further chemistry not given here) | 75.8 ± 7.7 | 75.8 ± 7.7 | 0.028 ± 0.018 | 80 ± 7.7 |
| 29957-DC (sense GCAGUUACUUCCACUCAAGTT; antisense CUUGAGUGGAAGUAACUGCUU; inverted abasic end caps, TT overhangs, modified nucleotides, further chemistry not given here) | 84.6 ± 5.4 | 84.6 ± 5.4 | 0.039 ± 0.013 | 87 ± 0.9 |
| 29961-DC (sense CUACACUGCUAAACUGAUUTT; antisense AAUCAGUUUAGCAGUGUAGUU; inverted abasic end caps, TT overhangs, modified nucleotides, further chemistry not given here) | 90 ± 1.3 | 90 ± 1.3 | 0.01 ± 0.004 | 89 ± 2.2 |
| 29964-DC (sense GAUUUGCAGGUGAUGUUAATT; antisense UUAACAUCACCUGCAAAUCUU; inverted abasic end caps, TT overhangs, modified nucleotides, further chemistry not given here) | 90.1 ± 0.8 | 90.1 ± 0.8 | 0.027 ± 0.015 | 87 ± 2.8 |
| 29984-DC (sense GUUAAAGGAUUUGAACCUUTT; antisense AAGGUUCAAAUCCUUUAACUU; inverted abasic end caps, TT overhangs, modified nucleotides, further chemistry not given here) | 66.2 ± 15.3 |  |  |  |
| 29988-DC (sense AUUUGAACCUUUAAUUCAGTT; antisense CUGAAUUAAAGGUUCAAAUUU; inverted abasic end caps, TT overhangs, modified nucleotides, further chemistry not given here) | 86.2 ± 3.1 | 86.2 ± 3.1 | 0.063 ± 0.019 | 84 ± 0.9 |

Source: US20120016010A1, “RNA Interference Mediated Inhibition of BTB and CNC Homology 1, Basic Leucine Zipper Transcription Factor 1 (BACH1) Gene Expression Using Short Interfering Nucleic Acid (siNA)” (Merck Sharp & Dohme Corp, priority 2009, published 2012)
